Test results reported in publication PMC5148673 (European journal of medicinal chemistry, 2016).

What was measured:
Type in all cases: cell-based, human
BT-474 cells = assay: Flow cytometry cell cycle analysis
SKBR-3 cells = assay: Confocal microscopy intracellular distribution, SKBR-3; details: SKBR-3, 5 μM, 30 min, 37 °C
MCF-7 cells = assay: Confocal microscopy intracellular distribution, MCF-7; details: MCF-7, 30 min, 4 h, 24 h incubation

Row | Compound | effect on cell cycle inhibition (BT-474 cells) | DOX fluorescence distribution in cells (SKBR-3 cells) | DOX fluorescence in cells (MCF-7 cells)
1 | N=C(N)NCCC[C@H](N)C(=O)N[C@@H](CC(=O)N[C@@H](Cc1ccccc1)C(=O)O)c1cccc2ccccc12 [Compound 5, Arg-aminonaphthylpropionic acid-Phe] | no significant effect on cell cycle inhibition |  | 
2 | COc1cccc2c1C(=O)c1c(O)c3c(c(O)c1C2=O)C[C@@](O)(C(=O)CO)C[C@@H]3O[C@H]1C[C@H](N)[C@H](O)[C@H](C)O1 [DOX, Doxorubicin] |  | strong DOX fluorescence in both the nucleus and cytoplasm | fluorescence was seen in 30 min
